Laboratory results reported in patent US20070243273A1, “Reduction of the Deleterious Effects of Tobacco Smoking” (SaviPu Pharmaceuticals, priority 2006, published 2007).

Key:
[1] = test system: benzo[a]pyrene-induced transformation of RTE cells; experiment: rat tracheal epithelial (RTE) cell focus inhibition assay; format: cell-based
Procedure: (§1) The rat tracheal epithelial (RTE) cell focus inhibition assay was used to identify potential chemopreventive activity of tanshinone IIA. Tanshinone IIA was evaluated for its ability to inhibit benzo[a]pyrene-induced transformation of RTE cells. Tracheal epithelial cells were isolated from 8-12 week-old male Fisher 344 rats and plated on collagen coated dishes. Initially, a nontoxic concentration of tanshinone IIA was determined by treating RTE cells with a range of 1.5 nM to 3000 nM of tanshinone IIA. […] About 10% cells survived at a concentration of 1500 nM. Freshly isolated RTE cells were exposed to benzo[a]pyrene alone or in combination with tanshinone IIA. Benzo[a]pyrene was washed out after an exposure of 24 h. The maximal non-toxic concentration and four half log concentrations of tanshinone IIA (300 nM to 3 nM) were used for the chemopreventive assay. After 30 days in culture, transformed foci were scored and inhibition was quantitated. […] A positive control of retinoic acid inhibited the transformation frequency by 50% at 1 nM.

[2] = test system: RTE cells; experiment: toxicity of tanshinone IIA to RTE cells; format: cell-based, rat
Procedure: as §1

Structure (SMILES)	prevention of benzo[a]pyrene-induced transformation of rat tracheal epithelial cells ([1]; 3 nM)	inhibition of transformation frequency ([1]; each dose level, 300 nM to 3 nM, benzo[a]pyrene exposure 24 h, foci scored after 30 days in culture)	cells survived ([2]; 1500 nM)	concentration found nontoxic to RTE cells ([2]; tested range 1.5 nM to 3000 nM) [nM]	toxicity to the cells ([2]; very low concentrations (3 nM))	inhibition at 0.001 µM ([1]; Rattus norvegicus, 1 nM, positive control, read-out: inhibition of transformation frequency) [%]
Cc1coc2c1C(=O)C(=O)c1c-2ccc2c1CCCC2(C)C [Tanshinone IIA]	totally prevented	complete inhibition	About 10%	≤ 150	nontoxic	
CC1=C(/C=C/C(C)=C/C=C/C(C)=C/C(=O)O)C(C)(C)CCC1 [retinoic acid, reference compound]						50
